The target of one assay is rat orexin 1 receptor (Rattus norvegicus, UniProt P56718). Put plainly: Rat orexin 1 receptor radioligand binding (competitive, [3H]-SB674042, HEK293 cell preparations).
Another assay has as its target human orexin 2 receptor (Homo sapiens (Human), UniProt O43614). Put plainly: Human orexin 2 receptor radioligand binding (competitive, [3H]-EMPA, HEK293 cell preparations).
Another assay deals with human orexin 1 receptor (Homo sapiens (Human), UniProt O43613). Put plainly: Human orexin 1 receptor radioligand binding (competitive, [3H]-SB674042, CHO cell preparations).
human orexin 1 receptor, sequence (O43613 whole entry): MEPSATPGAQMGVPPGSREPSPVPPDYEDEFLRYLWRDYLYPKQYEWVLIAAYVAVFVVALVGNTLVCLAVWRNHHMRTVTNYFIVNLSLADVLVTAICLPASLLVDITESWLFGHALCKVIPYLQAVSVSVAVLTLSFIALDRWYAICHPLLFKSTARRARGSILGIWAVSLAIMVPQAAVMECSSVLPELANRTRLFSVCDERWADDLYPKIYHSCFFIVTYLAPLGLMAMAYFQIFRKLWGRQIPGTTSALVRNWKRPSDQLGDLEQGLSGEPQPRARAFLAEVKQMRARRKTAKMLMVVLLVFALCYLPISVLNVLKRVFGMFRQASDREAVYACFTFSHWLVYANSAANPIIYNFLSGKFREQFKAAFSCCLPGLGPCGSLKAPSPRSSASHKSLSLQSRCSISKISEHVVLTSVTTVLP
Setting [1] is: rat orexin 1 receptor, [3H]-SB674042 competition binding, read-out: rOX1 Ki (nm).
Setting [2] is: human orexin 2 receptor, [3H]-EMPA competition binding, read-out: hOX2 Ki (nm).
[3] abbreviates: human orexin 1 receptor, [3H]-SB674042 competition binding, read-out: hOX1 Ki (nm).

The structures appear in SMILES notation. Like-named read-outs stand apart in the source and are kept apart here.

human orexin 2 receptor, sequence (O43614 whole entry): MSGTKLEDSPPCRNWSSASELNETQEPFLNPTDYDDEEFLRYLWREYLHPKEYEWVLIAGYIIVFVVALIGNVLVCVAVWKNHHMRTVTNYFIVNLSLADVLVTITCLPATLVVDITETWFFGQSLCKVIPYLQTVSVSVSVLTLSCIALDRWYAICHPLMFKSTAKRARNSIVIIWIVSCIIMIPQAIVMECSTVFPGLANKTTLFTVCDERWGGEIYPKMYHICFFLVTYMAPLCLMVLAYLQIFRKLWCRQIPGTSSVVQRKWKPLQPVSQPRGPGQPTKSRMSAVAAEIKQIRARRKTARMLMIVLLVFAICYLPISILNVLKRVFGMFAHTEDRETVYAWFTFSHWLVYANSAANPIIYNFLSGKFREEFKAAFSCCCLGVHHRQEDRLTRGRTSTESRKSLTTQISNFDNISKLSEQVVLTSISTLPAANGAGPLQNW

As to `Cc1ccc(-c2ncccn2)c(C(=O)N2C3CCC2C(COc2ccccn2)C3)n1` (racemic) [Example 2, (±)-(6-methyl-3-(pyrimidin-2-yl)pyridin-2-yl)(2-((pyridin-2-yloxy)methyl)-7-azabicyclo[2.2.1]heptan-7-yl)methanone], the Ki at rat orexin 1 receptor (rOX1 Ki (nm)) stood at 31 nM; at human orexin 2 receptor (hOX2 Ki (nm)) it was 500 nM; on human orexin 1 receptor (hOX1 Ki (nm)), 23 nM.
For the compound `Cc1ccc(-c2ncccn2)c(C(=O)N2C3CCC2C(COc2ccc(F)cn2)C3)c1` (racemic) [Example 33, (±)-(2-(((5-fluoropyridin-2-yl)oxy)methyl)-7-azabicyclo[2.2.1]heptan-7-yl)(5-methyl-2-(pyrimidin-2-yl)phenyl)methanone], the inhibition constant (Ki) is 15 nM on rat orexin 1 receptor (setting [1]), 39 nM on human orexin 2 receptor (setting [2]) and 9 nM at human orexin 1 receptor (setting [3]).
The matching figures for `O=C(c1c(F)cccc1-n1nccn1)N1C2CCC1C(COc1cnc3ccccc3n1)C2` (racemic) [Example 35, (±)-(2-fluoro-6-(2H-1,2,3-triazol-2-yl)phenyl)(2-((quinoxalin-2-yloxy)methyl)-7-azabicyclo[2.2.1]heptan-7-yl)methanone]: 69 nM, 693 nM and 58 nM.
Take `Cc1ccc(-n2nccn2)c(C(=O)N2C3CCC2C(COc2ccc(Br)cn2)C3)n1` (racemic) [Example 49, (±)-(2-(((5-bromopyridin-2-yl)oxy)methyl)-7-azabicyclo[2.2.1]heptan-7-yl)(6-methyl-3-(2H-1,2,3-triazol-2-yl)pyridin-2-yl)methanone]: the figures for the inhibitory constant (Ki) at rat orexin 1 receptor (rOX1 Ki (nm)), on human orexin 2 receptor (setting [2]) and at human orexin 1 receptor (hOX1 Ki (nm)) were 81 nM, 192 nM and 69 nM, respectively.
For `Cc1ccc(-n2nccn2)c(C(=O)N2C3CCC2C(COc2ncccc2C)C3)n1` (racemic) [Example 55, (±)-(6-methyl-3-(2H-1,2,3-triazol-2-yl)pyridin-2-yl)(2-(((3-methylpyridin-2-yl)oxy)methyl)-7-azabicyclo[2.2.1]heptan-7-yl)methanone], in that order: 119 nM, 202 nM and 150 nM.
The matching figures for `Cc1ccc(-n2nccn2)c(C(=O)N2C3CCC2C(COc2cccnc2)C3)n1` (racemic) [Example 58, (±)-(6-methyl-3-(2H-1,2,3-triazol-2-yl)pyridin-2-yl)(2-((pyridin-3-yloxy)methyl)-7-azabicyclo[2.2.1]heptan-7-yl)methanone]: 88 nM, 2400 nM and 117 nM.
In the case of `Cc1cccc(OCC2CC3CCC2N3C(=O)c2nc(C)ccc2-n2nccn2)n1` (racemic) [Example 62, (±)-(6-methyl-3-(2H-1,2,3-triazol-2-yl)pyridin-2-yl)(2-(((6-methylpyridin-2-yl)oxy)methyl)-7-azabicyclo[2.2.1]heptan-7-yl)methanone], the results for the Ki at rat orexin 1 receptor (setting [1]), on human orexin 2 receptor (hOX2 Ki (nm)) and at human orexin 1 receptor (setting [3]) were 74 nM, 188 nM and 46 nM, respectively.
As for `Cc1ccc(-c2ncco2)c(C(=O)N2C3CCC2C(COc2ccc(F)cn2)C3)n1` (racemic) [Example 63, (±)-(2-(((5-fluoropyridin-2-yl)oxy)methyl)-7-azabicyclo[2.2.1]heptan-7-yl)(6-methyl-3-(oxazol-2-yl)pyridin-2-yl)methanone], the figures for the Ki on rat orexin 1 receptor (setting [1]), at human orexin 2 receptor (setting [2]) and at human orexin 1 receptor (setting [3]) were 25 nM, 339 nM and 25 nM, respectively.
As to `Cc1ccc(-c2ncccn2)c(C(=O)N2C3CCC2C(COc2ccc(F)cn2)C3)n1` (racemic) [Example 64, (±)-(2-(((5-fluoropyridin-2-yl)oxy)methyl)-7-azabicyclo[2.2.1]heptan-7-yl)(6-methyl-3-(pyrimidin-2-yl)pyridin-2-yl)methanone], the Ki is 18 nM at rat orexin 1 receptor (setting [1]), 81 nM at human orexin 2 receptor (setting [2]) and 24 nM at human orexin 1 receptor (setting [3]).
The matching figures for `Cc1ccc(-c2nc(C)no2)c(C(=O)N2C3CCC2C(COc2ccc(F)cn2)C3)n1` (racemic) [Example 66, (±)-(2-(((5-fluoropyridin-2-yl)oxy)methyl)-7-azabicyclo[2.2.1]heptan-7-yl)(6-methyl-3-(3-methyl-1,2,4-oxadiazol-5-yl)pyridin-2-yl)methanone]: 197 nM, 620 nM and 293 nM.
The matching figures for `Cc1ccc(-n2ccc(C)n2)c(C(=O)N2C3CCC2C(COc2ccc(F)cn2)C3)n1` (racemic) [Example 67, (±)-(2-(((5-fluoropyridin-2-yl)oxy)methyl)-7-azabicyclo[2.2.1]heptan-7-yl)(6-methyl-3-(3-methyl-1H-pyrazol-1-yl)pyridin-2-yl)methanone]: 48 nM, 258 nM and 69 nM.
Turning to `Cc1ccc(N2CCCC2)c(C(=O)N2C3CCC2C(COc2ccc(F)cn2)C3)n1` (racemic) [Example 68, (±)-(2-(((5-fluoropyridin-2-yl)oxy)methyl)-7-azabicyclo[2.2.1]heptan-7-yl)(6-methyl-3-(pyrrolidin-1-yl)pyridin-2-yl)methanone], the Ki came out at 27 nM on rat orexin 1 receptor (setting [1]), 576 nM on human orexin 2 receptor (setting [2]) and 22 nM at human orexin 1 receptor (setting [3]).
Take `Cc1cc(-c2ccc(C)nc2C(=O)N2C3CCC2C(COc2ccc(F)cn2)C3)on1` (racemic) [Example 69, (±)-(2-(((5-fluoropyridin-2-yl)oxy)methyl)-7-azabicyclo[2.2.1]heptan-7-yl)(6-methyl-3-(3-methylisoxazol-5-yl)pyridin-2-yl)methanone]: the Ki on rat orexin 1 receptor (rOX1 Ki (nm)) turned out to be 40 nM; on human orexin 2 receptor (setting [2]), 174 nM; at human orexin 1 receptor (hOX1 Ki (nm)), 64 nM.
Turning to `Cc1ccc(-n2cccn2)c(C(=O)N2C3CCC2C(COc2ccc(F)cn2)C3)n1` (racemic) [Example 70, (±)-(2-(((5-fluoropyridin-2-yl)oxy)methyl)-7-azabicyclo[2.2.1]heptan-7-yl)(6-methyl-3-(1H-pyrazol-1-yl)pyridin-2-yl)methanone], the Ki at rat orexin 1 receptor (setting [1]) worked out at 88 nM; on human orexin 2 receptor (setting [2]), 624 nM; at human orexin 1 receptor (setting [3]), 62 nM.
For `Cc1ccnc(C(=O)N2C3CCC2C(COc2ccccn2)C3)c1-n1nccn1` (racemic) [Example 72, (±)-(4-methyl-3-(2H-1,2,3-triazol-2-yl)pyridin-2-yl)(2-((pyridin-2-yloxy)methyl)-7-azabicyclo[2.2.1]heptan-7-yl)methanone], in that order: 137 nM, 2400 nM and 162 nM.
For `CCOc1ccc2cccnc2c1C(=O)N1C2CCC1C(COc1ccccn1)C2` (racemic) [Example 75, (±)-(7-ethoxyquinolin-8-yl)(2-((pyridin-2-yloxy)methyl)-7-azabicyclo[2.2.1]heptan-7-yl)methanone], in that order: 18 nM, 220 nM and 7 nM.
With `Cn1cc(-c2ccccc2)c(C(=O)N2C3CCC2C(COc2ccccn2)C3)n1` (racemic) [Example 77, (±)-(1-methyl-4-phenyl-1H-pyrazol-3-yl)(2-((pyridin-2-yloxy)methyl)-7-azabicyclo[2.2.1]heptan-7-yl)methanone], the Ki at rat orexin 1 receptor (setting [1]) amounted to 103 nM; at human orexin 2 receptor (hOX2 Ki (nm)) it was 867 nM; at human orexin 1 receptor (setting [3]), 66 nM.
Consider `CCOc1ncc2ccccc2c1C(=O)N1C2CCC1C(COc1ccccn1)C2` (racemic) [Example 83, (±)-(3-ethoxyisoquinolin-4-yl)(2-((pyridin-2-yloxy)methyl)-7-azabicyclo[2.2.1]heptan-7-yl)methanone], for which the Ki on rat orexin 1 receptor (rOX1 Ki (nm)) was determined as 17 nM; on human orexin 1 receptor (hOX1 Ki (nm)) it was 12 nM.
For the compound `COc1ccc2cccnc2c1C(=O)N1C2CCC1C(COc1ccccn1)C2` (racemic) [Example 88, (±)-(7-methoxyquinolin-8-yl)(2-((pyridin-2-yloxy)methyl)-7-azabicyclo[2.2.1]heptan-7-yl)methanone], the Ki on rat orexin 1 receptor (setting [1]) was 47 nM; on human orexin 2 receptor (setting [2]), 690 nM; on human orexin 1 receptor (setting [3]) it was 49 nM.
Consider `CCOc1ccc2ccccc2c1C(=O)N1C2CCC1C(COc1ccccn1)C2` (racemic) [Example 89, (±)-(2-ethoxynaphthalen-1-yl)(2-((pyridin-2-yloxy)methyl)-7-azabicyclo[2.2.1]heptan-7-yl)methanone], for which the Ki on rat orexin 1 receptor (setting [1]) came out at 11 nM; at human orexin 2 receptor (setting [2]), 38 nM; on human orexin 1 receptor (setting [3]), 10 nM.
With `CCOc1ncc2ccccc2c1C(=O)N1[C@@H]2CC[C@H]1[C@H](COc1ccccn1)C2` [Example 164, (3-ethoxyisoquinolin-4-yl)((1S,2R,4R)-2-((pyridin-2-yloxy)methyl)-7-azabicyclo[2.2.1]heptan-7-yl)methanone], the Ki stood at 9 nM at rat orexin 1 receptor (read-out: rOX1 Ki (nm)) and 7 nM on human orexin 1 receptor (read-out: hOX1 Ki (nm)).
As for `O=C(c1ccccc1-n1nccn1)N1[C@@H]2CC[C@H]1[C@H](Nc1cnc(C(F)(F)F)cn1)C2` [Example 181, (2-(2H-1,2,3-triazol-2-yl)phenyl)((1S,2R,4R)-2-((5-(trifluoromethyl)pyrazin-2-yl)amino)-7-azabicyclo[2.2.1]heptan-7-yl)methanone], the inhibition constant Ki on human orexin 2 receptor (hOX2 Ki (nm)) was determined as 700 nM; on human orexin 1 receptor (hOX1 Ki (nm)) it was 28 nM.
Turning to `Cc1noc(-c2c(F)cccc2C(=O)N2[C@@H]3CC[C@H]2[C@H](Nc2cnc(C(F)(F)F)cn2)C3)n1` [Example 254, (3-fluoro-2-(3-methyl-1,2,4-oxadiazol-5-yl)phenyl)((1S,2R,4R)-2-((5-(trifluoromethyl)pyrazin-2-yl)amino)-7-azabicyclo[2.2.1]heptan-7-yl)methanone], the Ki on human orexin 2 receptor (setting [2]) was 377 nM; on human orexin 1 receptor (read-out: hOX1 Ki (nm)) it was 20 nM.
Regarding `O=C(c1ccc(F)cc1-n1nccn1)N1[C@@H]2CC[C@H]1[C@H](Nc1cnc(C(F)(F)F)cn1)C2` [Example 257, (4-fluoro-2-(2H-1,2,3-triazol-2-yl)phenyl)((1S,2R,4R)-2-((5-(trifluoromethyl)pyrazin-2-yl)amino)-7-azabicyclo[2.2.1]heptan-7-yl)methanone], the inhibition constant Ki was 3200 nM on human orexin 2 receptor (setting [2]) and 102 nM at human orexin 1 receptor (setting [3]).

The values are drawn from patent US9062078B2, “Substituted 7-azabicyles and their use as orexin receptor modulators” (priority 2013, dated 2015).
